The subject of experiment [1] is MIA PaCa-2. Briefly: 24 and 48 h chemosensitivity (MTT, with recovery period). The class given is cell-based, human. The procedure:
LogP = Log ( [C]final ) Eqn1
96 h Chemosensitivity Studies
In vitro chemosensitivity tests were performed at both the University of Huddersfield and the Institute of Cancer Therapeutics, Bradford, in a sterile Class II Biological Safety Cabinet fitted with a HEPA filtered laminar airflow.
Cellular assays were conducted against human pancreatic carcinoma (MIA PaCa-2), human colorectal carcinoma p53-wildtype (HCT116 p53+/+), and human non-cancerous epithelial retinal cells (ARPE-19). The ARPE-19 cells were obtained from the American Type Culture Collection and provided by the University of Huddersfield. All cell lines were routinely maintained as monolayer cultures in appropriate complete medium and maintained in either T-25 or T-75 flasks at 37 °C and 5% CO2. MIA PaCa-2 and ARPE-19 cells were cultured in high glucose DMEM-F12 medium containing 10% foetal calf serum, and HCT116 p53+/+ was cultured in RPMI 1640 supplemented with 10% foetal calf serum. All medium was supplemented with sodium pyruvate (1 mM) and L-glutamine (2 mM), and prior to chemosensitivity studies, cell monolayers were passaged using Trypsin-EDTA and diluted to a concentration of 1 x 10^4 cells/mL. All assays were conducted using 96-well plates, in which […] of the 1 x 10^4 cells/mL cell suspension was added to each well and incubated for 24 h at 37 °C and 5% CO2. After 24 h, 100 mL of drug dilutions (fresh 100 mM stock solutions in DMSO) in media were added to the plates and then incubated for a further 96 h at 37°C and 5% CO2 (48 h + 48 h recovery period were used for the shorter exposures with MIA PaCa-2 cells only). After 96 h, 20 mL MTT (3-(4,5-dimethylthiazol-2-yl)-2,5-diphenyltetrazolium bromide, 5 mg/mL) was added to each well and incubated for 3 h at 37 °C and 5% CO2. All solutions were then removed from the 96-well plates via pipette and […] of DMSO added to each well to dissolve the purple formazan crystals. After mixing well, the absorbance of each well was measured at 540 nm using a ThermoFisher Multiskan FC spectrophotometer microplate reader. Using the blank and 100% cell controls, the % cell viability was determined [(abs. of compound containing wells – abs. media wells)/(abs. 100% cell suspension well control)] and from this the % cell death (100%- % cell viability) was calculated. On a logarithmic scale, the percentage cell death was plotted against the concentration of compound, and from this the half maximal inhibitory concentration (IC50) value was determined. Each of the experiments were performed in triplicate with mean values being stated as the IC50 ± Standard Deviation (SD).
24 and 48 h Chemosensitivity Studies
The same experimental protocol described for the 96 h MTT assay was used, and the MIA PaCa-2 cells were incubated for either 24 or 48 h, with a 72 or 48 h recovery period respectively. […]
All assays were conducted in triplicate.

In experiment [2] the test system is MIA PaCa-2. Put plainly: Comet assay of cellular DNA damage. It counts as cell-based, human. The note with it: MIA PaCa-2, 48 h incubation, varying concentration. The procedure: Complexes 2, 4, and 7 were chosen due to their range in cytotoxicity, where complex 2 is moderately active and complexes 4 and 7 have the highest activities. Their ability to induce single-strand breakage (SSB) of DNA with varying concentrations of compound was studied after incubation with MIA PaCa-2 cells for 48 h. After harvesting the cells, quantification of the levels of SSB of DNA were assessed by using the alkaline comet assay.
Samples were then taken up in Optima high purity nitric acid, diluted to 10 mL with 1mL rhodium internal standard and 9 mL 18.2 Ultrapure water. The elemental contents of the samples were determined using ICP-MS-QQQ Thermo TQ spectrometer. Measurement of iron mass 56 and ruthenium isotope mass 100 was conducted by comparing solutions of known concentration and intensities. A series of standard calibration curves allows the concentration of each element to be determined. […]
The media -free wells were then trypsinized (1 mL) for 3 -5 minutes and then neutralized with high glucose DMEM (1 mL), these were all added to the centrifuge t ube and centrifuged at 1500 rpm for 3 minutes. […] Staining solution (150 mL) was added to each slide and the Comets analysed using Comet assay III software. A minimum of 50 different comets were scored and the computer outputs an average on head and tail intensities and tail moments. […]

The mark [3] stands for this setting: MIA PaCa-2, 24 h exposure + 72 h recovery, read-out: IC50 values ± SD, 24 h.
[4] abbreviates: MIA PaCa-2, 48 h exposure + 48 h recovery, read-out: IC50 values ± SD, 48 h.

Data on four compounds can be found in paper PMC10428205, “Cytotoxicity of Ruthenium(II) Arene Complexes Containing Functionalized Ferrocenyl β-Diketonate Ligands” (Organometallics, 2023).

Read-outs that look alike come from different tables or passages of the source.

By IC50 is commonly meant the concentration that gives 50% inhibition. Regarding `O=C(C=C(O)C(F)(F)F)[c-]1cccc1.[Fe+2].c1cc[cH-]c1` [Complex L7], the IC50 with MIA PaCa-2 [1] (setting [3]) was > 100 µM; in the experiment on MIA PaCa-2 [1] (setting [4]), 20 ± 1 µM.
On the same counts, the results for `CC(O)=CC(=O)[c-]1cccc1.[Fe+2].c1cc[cH-]c1` [Complex L1] are 76 ± 3 µM and 61 ± 1 µM.
Consider `[NH2][Pt]([NH2])([Cl])[Cl]` [CDDP, cisplatin, reference compound], for which the IC50 in the experiment with MIA PaCa-2 [1] (setting [3]) is > 100 µM; in the experiment on MIA PaCa-2 [1] (setting [4]), 76 ± 3 µM. In the experiment with MIA PaCa-2 [2], the “single-strand breakage (SSB) of DNA” value was “dose-dependent SSB similar to that of complex 4”.
As for `O=C(C=C(O)c1ccccc1)[c-]1cccc1.[Fe+2].c1cc[cH-]c1` [Complex L2], the IC50 in the experiment with MIA PaCa-2 [1] (setting [3]) was > 100 µM; in the experiment with MIA PaCa-2 [1] (setting [4]), 68 ± 3 µM.
